Source: patent US9241968B2, “Nonapeptide with anti-tumour activity” (Lytix Biopharma AS, priority 2008, dated 2016)
Non-standard residues stand in square brackets, D forms with d. Residues, ends and D or L forms follow the SMILES beside them. Bip = N[C@@H](Cc1ccc(-c2ccccc2)cc1)C(=O)O; dBip = N[C@H](Cc1ccc(-c2ccccc2)cc1)C(=O)O; Dip = N[C@H](C(=O)O)C(c1ccccc1)c1ccccc1

Tests used:
[1] = tested on: panel of 37 human cancer cell lines; test: In vitro cytotoxic activity, MTS assay, panel summary; format: cell-based; settings: range stated in conclusions
Experimental: 2. Materials and Methods 2.1. Test Substances 2.1.1. Test Substances • Test substances, LTX-302, LTX-313, LTX-315, LTX-320 and LTX-329 (see Table 1) provided in powder form. 2.1.2. Positive Control • Triton X-100 was used as positive control, supplied by Oncodesign (Dijon, France) from Sigma (Saint Quentin Fallavier, France). 2.1.3. Drug Vehicle and Storage Conditions • Compounds were stored at 4° C. Powder was first dissolved in serum free culture medium (RPMI 1640, Lonza, Verviers, Belgium) and further diluted using serum-free culture medium to reach appropriate dilutions. Stock solution was not stored and was prepared fresh the day of experiment. • 1% (final concentration) Triton X-100 was obtained by dilution using culture medium. 2.2. Tumor Cell Lines and Culture Conditions 2.2.1. Tumor Cell Lines
Tumor cells were grown as adherent monolayers or as suspensions at 37° C. in a humidified atmosphere (5% CO2, 95% air). The culture medium was RPMI 1640 containing 2 mM L-glutamine (Lonza, Belgium) and supplemented with 10% fetal bovine serum (FBS, Lonza). For experimental use, the adherent cells were detached from the culture flask by a 5-minute treatment with trypsin-versene (Lonza), diluted in Hanks' medium without calcium or magnesium (Lonza) and neutralized by addition of complete culture medium. Cells were counted in a hemocytometer and their viability was assessed by 0.25% trypan blue exclusion.
Tumor cells were plated in 96-well flat-bottom microtitration plates (Nunc, Dutscher, Brumath, France) and incubated at 37° C. for 24 hours before treatment in 190 μl of drug-free culture medium supplemented or not with 10% FBS for adherent or suspension growing cell lines, respectively.
The adherent cell lines were washed once with 200 μl FBS-free culture medium before treatment. […]
Three (3) independent experiments were performed, each concentration being tested in quadruplicate. […] At the end of treatments, the cytotoxic activity was evaluated by a MTS assay (see §3.3). […]
At the end of the cells treatment, 40 μl of a 0.22 μm filtered freshly combined solution of MTS (20 ml at 2 mg/ml, Ref G1111, Batch 235897, Exp March/2009, Promega, Charbonnières, France) and PMS (1 ml at 0.92 mg/ml, Ref P9625, Batch 065K0961, Sigma) in Dulbecco's Phosphate Buffered Saline (DPBS, Ref 17-513Q, Batch 6MB0152, Cambrex), were added in each well. […] Absorbency (OD) were measured at 490 nm in each well using VICTOR^3™ 1420 multilabeled counter (Wallac, PerkinElmer, Courtaboeuf, France). […]
The dose-response curves were plotted using XLFit 3 (IDBS, United Kingdom). The IC50 determination values were calculated using the XLFit 3 software from semi-log curves. […]

[2] = tested on: panel of 10 lymphoma cell lines; test: In vitro cytotoxic activity on lymphoma cells, MTS assay, panel summary; format: cell-based, human; settings: range stated in conclusions
From the text: • To determine the concentrations of five novel compounds to obtain a 50% inhibition of proliferation (IC50) against a panel of 10 lymphoma cell lines. 2. Materials and Methods 2.1. Test Substances 2.1.1. Test Substances • Test substances, LTX-302, LTX-313, LTX-315, LTX-320 and LTX-329 (see Table 1) provided in powder form. 2.1.2. Positive Control • Triton X-100 was used as positive control and supplied by Oncodesign (Dijon, France) from Sigma (Saint Quentin Fallavier, France). 2.1.3. Drug vehicle and storage condition • Compounds were stored at 4° C. Powder was first dissolved in serum free culture medium (RPMI 1640, Lonza, Verviers, Belgium) and further diluted using serum-free culture medium to reach appropriate dilutions. Stock solution was not stored and was prepared fresh the day of experiment. • 1% (final concentration) Triton X-100 was obtained by dilution using culture medium. 2.2. Tumor Cell Lines and Culture Conditions 2.2.1. Tumor Cell Lines
Tumor cells were grown as suspensions at 37° C. in a humidified atmosphere (5% CO2, 95% air). The culture medium for each cell line is described in the Table 3 below. For experimental use, cells were counted in a hemocytometer and their viability was assessed by 0.25% trypan blue exclusion.
Tumor cells were plated in 96-well flat-bottom microtitration plates (Nunc, Dutscher, Brumath, France) and incubated at 37° C. for 24 hours before treatment in 190 μl of drug-free and FBS-free culture medium.
Tumor cells were incubated for 4 hours with 10 concentrations of compounds in ¼ dilution step with a top dose of 400 μM (range 4×10^−4 to […]), with 1% (final concentration) Triton X-100 as positive control and FBS-free culture medium as negative control. The cells (190 μl) were incubated in a 200 μl final volume of FBS-free culture medium containing test substances at 37° C. under 5% CO2.
Three independent experiments were performed, each concentration being issued from quadruplicate. Control cells were treated with vehicle alone. At the end of treatments, the cytotoxic activity was evaluated by a MTS assay (see §3.3 below). […]
At the end of the cells treatment, 40 μl of a 0.22 μm filtered freshly combined solution of MTS (20 ml at 2 mg/ml, Ref G1111, Batch 235897, Exp March/2009, Promega, Charbonnières, France) and PMS (1 ml at 0.92 mg/ml, Ref P9625, Batch 065K0961, Sigma) in Dulbecco's Phosphate Buffered Saline (DPBS, Ref 17-513Q, Batch 6MB0152, Cambrex), were added in each well. […] Absorbency (OD) were measured at 490 nm in each well using VICTOR^3™ 1420 multilabeled counter (Wallac, PerkinElmer, Courtaboeuf, France).
4.1. IC50 Data was Determined as in Example 1

[3] = tested on: murine A20 B-cell lymphoma; test: Intratumoral treatment of murine A20 B-cell lymphoma tumours in mice; format: in vivo; settings: Group 1 (1 mg) compared to the other two groups
Experimental: The aim of the study was to investigate the effect of LTX-315 at different dose levels on a murine A20 B-cell lymphoma in mice.
The administration took place by intratumoral injection of LTX-315 dissolved in sterile saline.
Female mice were inoculated subcutaneously in the abdomen with 5 million murine A20 cells (ATCC, LGC Promochem AB, Middlesex, England) in a volume of 50 μl. The mice were divided into four groups (see Table 5 below for details). The intratumoral treatment was initiated when the tumours had reached the desired size of approximately 5 mm in diameter (minimum of 20 mm^2).
Three dose levels of LTX-315, 1 mg (Group 1), 0.5 mg (Group 2) and 0.25 mg (Group 3) per injection, were investigated. The volume was 50 μl for all injections. LTX-315 was dissolved in sterile 0.9% NaCl water solution. This vehicle was used as control (Group 4). All four groups received three injections.
A caliper was used for tumour size measurements and weighing and physical examination were used as health control.
Animals: Specific pathogen-free female Balb/c mice, 6-8 weeks old, supplied form Harlan (England, UK)

| SMILES | IC50 values against 37 human cancer cell lines (cytolytic activity), in words [1] | IC50 values against the 10 human lymphoma cell lines (cytolytic activity), in words [2] | necrosis and wound formation [3] |
| --- | --- | --- | --- |
| NCCCC[C@H](NC(=O)[C@H](Cc1c[nH]c2ccccc12)NC(=O)[C@H](CCCCN)NC(=O)[C@H](CCCCN)NC(=O)[C@@H](NC(=O)[C@H](Cc1c[nH]c2ccccc12)NC(=O)[C@H](CCCCN)NC(=O)[C@H](CCCCN)NC(=O)[C@@H](N)Cc1c[nH]c2ccccc12)C(c1ccccc1)c1ccccc1)C(N)=O [LTX-302, W-K-K-W-Dip-K-K-W-K-NH2] (H-WKKW[Dip]KKWK-NH2; N-terminus assumed) | micromolar to ten micromolar range | micromolar range |  |
| NCCCC[C@H](NC(=O)[C@H](Cc1c[nH]c2ccccc12)NC(=O)[C@H](Cc1c[nH]c2ccccc12)NC(=O)[C@H](CCCCN)NC(=O)[C@H](CCCCN)NC(=O)[C@H](Cc1c[nH]c2ccccc12)NC(=O)[C@H](Cc1ccc(-c2ccccc2)cc1)NC(=O)[C@H](CCCCN)NC(=O)[C@@H](N)CCCCN)C(N)=O [LTX-313, K-K-Bip-W-K-K-W-W-K-NH2] (H-KK[Bip]WKKWWK-NH2; N-terminus assumed) | micromolar to ten micromolar range | micromolar range |  |
| NCCCC[C@H](NC(=O)[C@@H](NC(=O)[C@H](Cc1c[nH]c2ccccc12)NC(=O)[C@H](CCCCN)NC(=O)[C@H](CCCCN)NC(=O)[C@H](Cc1c[nH]c2ccccc12)NC(=O)[C@H](Cc1c[nH]c2ccccc12)NC(=O)[C@H](CCCCN)NC(=O)[C@@H](N)CCCCN)C(c1ccccc1)c1ccccc1)C(N)=O [LTX-315, K-K-W-W-K-K-W-Dip-K-NH2] (H-KKWWKKW[Dip]K-NH2) |  |  | stronger necrosis and more wound formation |
| N=C(N)NCCC[C@H](NC(=O)[C@H](Cc1c[nH]c2ccccc12)NC(=O)[C@H](Cc1c[nH]c2ccccc12)NC(=O)[C@H](CCCNC(=N)N)NC(=O)[C@H](CCCNC(=N)N)NC(=O)[C@@H](NC(=O)[C@H](Cc1c[nH]c2ccccc12)NC(=O)[C@H](CCCNC(=N)N)NC(=O)[C@@H](N)CCCNC(=N)N)C(c1ccccc1)c1ccccc1)C(N)=O [LTX-320, R-R-W-Dip-R-R-W-W-R-NH2] (H-RRW[Dip]RRWWR-NH2; N-terminus assumed) | micromolar to ten micromolar range | micromolar range |  |
| NCCCC[C@@H](N)C(=O)N[C@H](CCCCN)C(=O)N[C@H](Cc1ccc(-c2ccccc2)cc1)C(=O)N[C@H](Cc1c[nH]c2ccccc12)C(=O)N[C@H](CCCCN)C(=O)N[C@H](CCCCN)C(=O)N[C@H](Cc1c[nH]c2ccccc12)C(=O)N[C@H](Cc1c[nH]c2ccccc12)C(=O)N[C@H](CCCCN)C(N)=O [LTX-329, k-k-bip-w-k-k-w-w-k-NH2] (H-[dK][dK][dBip][dW][dK][dK][dW][dW][dK]-NH2; N-terminus assumed) | micromolar to ten micromolar range | micromolar range |  |
